Source: ChEMBL document CHEMBL1201862, “PubChem BioAssay data set” (2004)
Calls of active or inactive are those of the source.

Experiments:
Vero = test: cells; format: functional; conditions: Chlorocebus sabaeus
Escherichia coli = test: microbe, parasite or virus in culture
[1] = target: T1, Heat shock factor protein 1 (Mus musculus, UniProt P38532); test: HSF1 potentiators in luciferase reporter cells, confirmation, cell-based, NIH3T3, luminescence, dose retest (AID 435004); format: functional;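 further: stress induced by proteasome inhibitor MG132 added 30 min after compound; luciferase reporter driven by HSF1 response element in NIH3T3 cells; actives raise luminescence as potentiators of the MG132 stress response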
T1 sequence (P38532 whole entry): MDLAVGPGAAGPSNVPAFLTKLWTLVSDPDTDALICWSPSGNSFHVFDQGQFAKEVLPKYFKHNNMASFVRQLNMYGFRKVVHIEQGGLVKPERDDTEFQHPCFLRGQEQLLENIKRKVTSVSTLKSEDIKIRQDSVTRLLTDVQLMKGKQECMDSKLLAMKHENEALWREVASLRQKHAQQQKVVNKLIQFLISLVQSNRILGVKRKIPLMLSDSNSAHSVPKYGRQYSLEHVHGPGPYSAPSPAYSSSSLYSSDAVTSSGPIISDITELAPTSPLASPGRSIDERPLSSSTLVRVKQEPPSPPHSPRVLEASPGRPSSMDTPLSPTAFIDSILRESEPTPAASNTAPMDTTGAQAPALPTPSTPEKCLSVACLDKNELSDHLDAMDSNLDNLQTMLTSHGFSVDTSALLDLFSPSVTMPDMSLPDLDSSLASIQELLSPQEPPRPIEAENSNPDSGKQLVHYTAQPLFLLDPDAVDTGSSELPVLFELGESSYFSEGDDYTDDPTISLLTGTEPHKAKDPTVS

[2] = target: Delta-type opioid receptor (Homo sapiens, UniProt P41143); test: Counterscreen for agonists of heterodimerization of the mu 1 (OPRM1) and delta 1 (OPRD1) opioid receptors: Luminescence-based cell-based high throughput dose response assay to identify agonists of OPRD1 homodimerization. [Related pubchem assays (depositor defined):AID504326, AID504355, AID504692, AID504904, AID504905]; format: functional
Delta-type opioid receptor, sequence (P41143 whole entry): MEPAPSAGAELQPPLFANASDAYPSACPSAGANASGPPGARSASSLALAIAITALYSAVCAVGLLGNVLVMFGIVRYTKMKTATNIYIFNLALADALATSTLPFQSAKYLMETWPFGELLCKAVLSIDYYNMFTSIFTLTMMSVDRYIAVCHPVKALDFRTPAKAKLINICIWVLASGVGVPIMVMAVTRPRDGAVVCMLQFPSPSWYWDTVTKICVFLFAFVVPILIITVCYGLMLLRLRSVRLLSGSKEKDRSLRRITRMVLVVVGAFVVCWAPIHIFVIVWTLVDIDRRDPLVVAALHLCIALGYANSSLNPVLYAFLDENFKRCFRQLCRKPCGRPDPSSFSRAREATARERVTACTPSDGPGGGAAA

Mu-type opioid receptor = Mu-type opioid receptor (Homo sapiens, UniProt P35372); test: Counterscreen for agonists of heterodimerization of the mu 1 (OPRM1) and delta 1 (OPRD1) opioid receptors: Luminescence-based cell-based high throughput dose response assay to identify agonists of OPRM1 homodimerization.; format: functional;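 further: U2OS cells expressing OPRM1 and beta-arrestin as split beta-galactosidase partners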
Mu-type opioid receptor, sequence (P35372 whole entry): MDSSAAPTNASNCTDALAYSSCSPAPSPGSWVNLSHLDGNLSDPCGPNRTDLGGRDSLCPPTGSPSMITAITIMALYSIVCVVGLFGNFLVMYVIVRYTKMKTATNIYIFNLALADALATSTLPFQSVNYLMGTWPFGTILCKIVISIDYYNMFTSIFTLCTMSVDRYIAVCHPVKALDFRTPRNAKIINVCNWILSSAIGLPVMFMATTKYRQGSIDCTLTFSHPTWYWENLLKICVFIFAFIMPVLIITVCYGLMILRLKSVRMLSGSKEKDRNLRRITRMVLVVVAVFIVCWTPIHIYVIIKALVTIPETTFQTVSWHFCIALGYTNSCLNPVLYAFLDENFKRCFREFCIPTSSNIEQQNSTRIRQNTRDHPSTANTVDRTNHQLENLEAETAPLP

[3] = target: 5-hydroxytryptamine receptor 5A (Homo sapiens, UniProt P47898); test: Counterscreen for agonists of OPRM1-OPRD1 heterodimerization: luminescence-based cell-based high throughput dose response assay to identify agonists of 5-hydroxytryptamine (serotonin) 5A receptor (HTR5A). [Related pubchem assays (depositor defined):AID504326, AID504355, AID504692, AID504904, AID504905]; format: functional
5-hydroxytryptamine receptor 5A, sequence (P47898 whole entry): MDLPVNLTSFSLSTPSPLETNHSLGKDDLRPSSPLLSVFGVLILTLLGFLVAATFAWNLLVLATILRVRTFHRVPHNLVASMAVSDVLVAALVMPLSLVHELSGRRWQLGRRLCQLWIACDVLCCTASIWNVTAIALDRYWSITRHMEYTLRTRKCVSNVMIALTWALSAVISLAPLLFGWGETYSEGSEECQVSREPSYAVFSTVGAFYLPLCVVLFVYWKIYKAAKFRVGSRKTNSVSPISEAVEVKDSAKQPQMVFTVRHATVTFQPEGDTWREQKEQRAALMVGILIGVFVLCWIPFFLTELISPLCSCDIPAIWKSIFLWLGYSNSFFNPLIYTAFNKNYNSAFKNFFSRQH

cells [4] = format: functional, cell-based
[5] = cytotoxicity in MIN6 insulinoma cells, dose response, cytotoxicity control, cell-based, mouse insulinoma (AID 2122); format: functional;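 further: confirmatory high-throughput counterscreen run to flag cytotoxic compounds; mouse MIN-6 beta cells carrying an insulin promoter eGFP reporter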
[6] = control 3'UTR Renilla luciferase suppression, dose response, counter-screen for Shn3 inhibitor project, cell-based, Clone20-Shn3RL, cherry-picked (AID 624133); format: functional
[7] = insulin promoter down-regulators in MIN6 cells, imaging, high-content screening, mouse beta cells (AID 1628); format: functional
[8] = Shn3 3'UTR reporter inhibitors, dose response, cell-based, Clone20 osteoblasts, firefly luciferase, cherry-picked (AID 624132); format: functional;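 further: firefly luciferase luminescence from reporter carrying the Shn3 3'UTR in osteoblasts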
INS1 = test: beta cell apoptosis inhibitors, cytokine rescue, dose response, luminescence, retest (AID 449756); format: functional, cell-based; conditions: Rattus norvegicus;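 further: cell death triggered by IL-1 beta plus TNF-alpha plus IFN-gamma mixture; protective hits raise ATP signal compared with cytokine alone wells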
cells [9] = format: functional, cell-based; remark: listed apart in the source
[10] = HepG2 cell cytotoxicity, dose response, cytotoxicity control for Shn3 inhibitor project, CellTiter-Glo, cherry-picked (AID 624134); format: functional, cell-based

**Q.** With `O=C1N(c2ccccc2C(F)(F)F)OC1(Cc1ccccc1)c1ccccc1` (stereo not drawn) as the compound, how does the CC50 (Vero) read?
**A.** Its CC50 is > 25 µM (active).

**Q.** For `COC(=O)c1c(NC(=O)CCN2CCOCC2)sc2c1CCCC2`, which AC50 (Escherichia coli) is on record?
**A.** The AC50 was 85.8 µM (active).

**Q.** For `COc1ccc(-c2nnc(Nc3ccc(CC(N)=O)cc3)c3ccccc23)cc1`, which EC50 [1] is on record?
**A.** The EC50 was > 260 µM (inactive).

**Q.** And the AC50 (Escherichia coli)?
**A.** Its AC50 is 23.2 µM (active).

**Q.** With `CN(C)C(CNC(=O)CSC(=S)N1CCCC1)c1ccccc1` (stereo not drawn) as the compound, how does the EC50 [2] read?
**A.** Its EC50 is > 92.5 µM (inactive).

**Q.** What about the EC50 (Mu-type opioid receptor) of the same compound?
**A.** Its EC50 is 17.1 µM (inactive).

**Q.** What about the EC50 [3] of the same compound?
**A.** The EC50 was > 92.5 µM (inactive).

**Q.** Which EC50 [2] does the source give for `COc1ccccc1NC(=O)c1sc2nc(C)cc(C)c2c1N` here?
**A.** Its EC50 is > 92.5 µM (inactive).

**Q.** And the EC50 (Mu-type opioid receptor)?
**A.** Its EC50 is > 92.5 µM (inactive).

**Q.** And the EC50 [3]?
**A.** Its EC50 is > 92.5 µM (inactive).

**Q.** Which EC50 (cells [4]) does the source give for `Cc1ccc(Nc2c(-c3ccccn3)nc3ccc(C)cn23)cc1` here?
**A.** Its EC50 is 38.3 µM (active).

**Q.** What about the IC50 [5] of the same compound?
**A.** Its IC50 is 0.539 µM (active).

**Q.** What about the AC50 [6] of the same compound?
**A.** Its AC50 is 3.02 µM (active).

**Q.** What about the IC50 [7] of the same compound?
**A.** The IC50 was 1.95 µM (active).

**Q.** And the AC50 [8]?
**A.** Its AC50 is 1.74 µM (active).

**Q.** What about the AC50 (INS1) of the same compound?
**A.** Its AC50 is 3 µM (active).

**Q.** What about the EC50 (cells [9]) of the same compound?
**A.** The EC50 was 79.5 µM (active).

**Q.** And the AC50 [10]?
**A.** The AC50 was 5.21 µM (active).
